Patent US20230233569A1 (Revolution Medicines, Inc., priority 2020, published 2023)
Read-outs that look alike come from different tables or passages of the source.

How the values were obtained:
AsPC-1 (K-Ras G12D) [1] = test: Potency assay: pERK; assay type: cell-based; conditions: Homo sapiens, ASPC1, read-out: pERK EC50
AsPC-1 (K-Ras G12D) [2] = test: CellTiter-Glo cell viability assay; assay type: cell-based; conditions: Homo sapiens, ASPC1, 120 h, read-out: AsPC-1 Cell Viability assay data IC50, K-Ras G12D, 5-day treatment
Procedure, shortened: (§1)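 Test compounds were dispensed directly onto seeded cells, and on day 5 plates were brought to room temperature for about 30 minutes before CellTiter-Glo luminescence was read. Signals were expressed as percent of the mean DMSO control and fitted with a four-parameter logistic model.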

NCI-H358 (K-Ras G12C) = test: CellTiter-Glo cell viability assay; assay type: cell-based; conditions: Homo sapiens, NCI-H358, 120 h, read-out: H358 Cell Viability assay data IC50, K-Ras G12C, 5-day treatment
Procedure, shortened: as §1

KRAS G12D = KRAS G12D (Homo sapiens, UniProt P01116+P62937, G12D); test: Ras-Raf disruption / FRET / MOA assay (BRAF RBD); assay type: biochemical; conditions: with Cyclophilin A
Procedure, shortened: (§2)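 TR-FRET in 25 mM HEPES pH 7.3, 100 mM NaCl, 5 mM MgCl2, 0.1% BSA, 0.002% Tween20 with 25 μM Cyclophilin A, 12.5 nM His6-Ras-GMPPNP, 50 nM GST-BRAF RBD; compound 10-point 3-fold series from 30 μM. After 3 h at 25 °C, Eu anti-His/APC anti-GST added for 1.5 h; IC50 from ratio decrease versus DMSO.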

KRAS G12S = KRAS G12S (Homo sapiens, UniProt P01116+P62937, G12S); test: Ras-Raf disruption / FRET / MOA assay (BRAF RBD); assay type: biochemical; conditions: with Cyclophilin A
Procedure, shortened: as §2

KRAS G12V = KRAS G12V (Homo sapiens, UniProt P01116+P62937, G12V); test: Ras-Raf disruption / FRET / MOA assay (BRAF RBD); assay type: biochemical; conditions: with Cyclophilin A
Procedure, shortened: as §2

KRAS G13C = KRAS G13C (Homo sapiens, UniProt P01116+P62937, G13C); test: Ras-Raf disruption / FRET / MOA assay (BRAF RBD); assay type: biochemical; conditions: with Cyclophilin A
Procedure, shortened: as §2

KRAS G13D = KRAS G13D (Homo sapiens, UniProt P01116+P62937, G13D); test: Ras-Raf disruption / FRET / MOA assay (BRAF RBD); assay type: biochemical; conditions: with Cyclophilin A
Procedure, shortened: as §2

KRAS Q61H = KRAS Q61H (Homo sapiens, UniProt P01116+P62937, Q61H); test: Ras-Raf disruption / FRET / MOA assay (BRAF RBD); assay type: biochemical
Procedure, shortened: as §2

KRAS WT = KRAS WT (Homo sapiens, UniProt P01116+P62937); test: Ras-Raf disruption / FRET / MOA assay (BRAF RBD); assay type: biochemical; conditions: with Cyclophilin A
Procedure, shortened: as §2

NRAS G12C = NRAS G12C (Homo sapiens, UniProt P01111+P62937, G12C); test: Ras-Raf disruption / FRET / MOA assay (BRAF RBD); assay type: biochemical
Procedure, shortened: as §2

NRAS Q61K = NRAS Q61K (Homo sapiens, UniProt P01111+P62937, Q61K); test: Ras-Raf disruption / FRET / MOA assay (BRAF RBD); assay type: biochemical
Procedure, shortened: as §2

NRAS Q61R = NRAS Q61R (Homo sapiens, UniProt P01111+P62937, Q61R); test: Ras-Raf disruption / FRET / MOA assay (BRAF RBD); assay type: biochemical
Procedure, shortened: as §2

NRAS WT = NRAS WT (Homo sapiens, UniProt P01111+P62937); test: Ras-Raf disruption / FRET / MOA assay (BRAF RBD); assay type: biochemical
Procedure, shortened: as §2

KRAS G12C = KRAS G12C (Homo sapiens, UniProt P01116+P62937, G12C); test: Ras-Raf disruption / FRET / MOA assay (BRAF RBD); assay type: biochemical; conditions: with Cyclophilin A
Procedure, shortened: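 His6-K-Ras G12C-GMPPNP (12.5 nM), GST-BRAF RBD (50 nM) and tagless Cyclophilin A (25 μM) incubated 3 h at 25 °C with compound (10-point 3-fold series from 30 μM), pH 7.3 HEPES buffer. Anti-His Eu/anti-GST APC added for 1.5 h; decreased TR-FRET ratio vs DMSO gives IC50.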

[3] = KRAS G12D FRET data IC50, Ras-Raf disruption
[4] = KRAS G12S FRET data IC50, Ras-Raf disruption
[5] = KRAS G12V FRET data IC50, Ras-Raf disruption
[6] = KRAS G13C FRET data IC50, Ras-Raf disruption
[7] = KRAS G13D FRET data IC50, Ras-Raf disruption
[8] = KRAS WT FRET data IC50, Ras-Raf disruption
[9] = NRAS G12C FRET data IC50, NRAS G12C
[10] = KRAS G12C FRET data IC50, Ras-Raf disruption

Chain of KRAS G12S (P01116 1-169 isoform P01116-2 G12S limits assumed): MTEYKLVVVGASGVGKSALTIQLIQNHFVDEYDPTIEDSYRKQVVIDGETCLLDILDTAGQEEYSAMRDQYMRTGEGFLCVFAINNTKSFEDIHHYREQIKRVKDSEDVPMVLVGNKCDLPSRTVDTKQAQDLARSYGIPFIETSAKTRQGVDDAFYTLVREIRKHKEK
Chain of KRAS G12S (P62937 whole entry): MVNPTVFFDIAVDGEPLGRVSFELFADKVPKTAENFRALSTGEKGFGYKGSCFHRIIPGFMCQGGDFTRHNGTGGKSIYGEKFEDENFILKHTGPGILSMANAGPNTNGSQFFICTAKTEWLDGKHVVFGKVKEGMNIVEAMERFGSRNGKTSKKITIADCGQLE
Chain of NRAS WT (P01111 whole entry): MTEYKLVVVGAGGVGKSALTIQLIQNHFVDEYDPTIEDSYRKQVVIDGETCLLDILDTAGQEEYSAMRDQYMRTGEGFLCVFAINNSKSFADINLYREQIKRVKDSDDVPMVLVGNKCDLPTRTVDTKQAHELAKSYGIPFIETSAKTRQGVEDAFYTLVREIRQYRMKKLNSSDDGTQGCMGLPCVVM
Chain of NRAS WT (P62937 whole entry): as the sequence (P62937 whole entry) above
Chain of KRAS G13C (P01116 1-169 isoform P01116-2 G13C limits assumed): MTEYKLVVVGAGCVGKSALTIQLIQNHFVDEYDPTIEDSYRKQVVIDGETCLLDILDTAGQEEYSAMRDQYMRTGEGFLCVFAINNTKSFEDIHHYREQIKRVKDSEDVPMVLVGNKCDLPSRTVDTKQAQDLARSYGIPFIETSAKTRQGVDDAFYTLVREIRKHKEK
Chain of KRAS G13C (P62937 whole entry): as the sequence (P62937 whole entry) above
Chain of KRAS G12V (P01116 1-169 isoform P01116-2 G12V limits assumed): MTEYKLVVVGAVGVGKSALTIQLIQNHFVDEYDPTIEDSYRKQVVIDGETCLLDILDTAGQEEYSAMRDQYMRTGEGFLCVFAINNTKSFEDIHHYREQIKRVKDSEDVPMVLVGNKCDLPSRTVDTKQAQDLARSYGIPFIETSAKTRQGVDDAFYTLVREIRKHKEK
Chain of KRAS G12V (P62937 whole entry): as the sequence (P62937 whole entry) above
Chain of NRAS Q61R (P01111 whole entry Q61R): as the sequence (P01111 whole entry) above, with Q61R counted along it
Chain of NRAS Q61R (P62937 whole entry): as the sequence (P62937 whole entry) above
Chain of KRAS WT (P01116 1-169 isoform P01116-2 limits assumed): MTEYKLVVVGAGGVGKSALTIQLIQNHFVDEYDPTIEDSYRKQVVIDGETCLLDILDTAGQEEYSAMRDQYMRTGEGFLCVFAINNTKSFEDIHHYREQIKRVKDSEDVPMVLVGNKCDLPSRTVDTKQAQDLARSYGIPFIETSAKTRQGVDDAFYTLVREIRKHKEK
Chain of KRAS WT (P62937 whole entry): as the sequence (P62937 whole entry) above
Chain of KRAS Q61H (P01116 1-169 isoform P01116-2 Q61H limits assumed): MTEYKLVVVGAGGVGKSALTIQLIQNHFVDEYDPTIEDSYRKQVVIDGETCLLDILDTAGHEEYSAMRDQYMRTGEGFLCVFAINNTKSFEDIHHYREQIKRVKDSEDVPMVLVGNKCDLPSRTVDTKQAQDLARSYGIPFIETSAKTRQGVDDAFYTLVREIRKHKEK
Chain of KRAS Q61H (P62937 whole entry): as the sequence (P62937 whole entry) above
Chain of NRAS Q61K (P01111 whole entry Q61K): as the sequence (P01111 whole entry) above, with Q61K counted along it
Chain of NRAS Q61K (P62937 whole entry): as the sequence (P62937 whole entry) above
Chain of KRAS G12C (P01116 1-169 isoform P01116-2 G12C limits assumed): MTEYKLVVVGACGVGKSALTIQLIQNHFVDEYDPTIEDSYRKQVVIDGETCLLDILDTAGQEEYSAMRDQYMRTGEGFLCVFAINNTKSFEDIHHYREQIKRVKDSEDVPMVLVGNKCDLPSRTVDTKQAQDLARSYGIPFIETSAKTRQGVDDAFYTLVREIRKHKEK
Chain of KRAS G12C (P62937 whole entry): as the sequence (P62937 whole entry) above
Chain of KRAS G13D (P01116 1-169 isoform P01116-2 G13D limits assumed): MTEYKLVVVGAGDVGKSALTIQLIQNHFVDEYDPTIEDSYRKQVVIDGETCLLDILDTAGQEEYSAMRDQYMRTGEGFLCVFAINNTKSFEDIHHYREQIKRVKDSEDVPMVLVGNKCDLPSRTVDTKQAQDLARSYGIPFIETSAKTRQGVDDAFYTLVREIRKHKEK
Chain of KRAS G13D (P62937 whole entry): as the sequence (P62937 whole entry) above
Chain of NRAS G12C (P01111 whole entry G12C): as the sequence (P01111 whole entry) above, with G12C counted along it
Chain of NRAS G12C (P62937 whole entry): as the sequence (P62937 whole entry) above
Chain of KRAS G12D (P01116 1-169 isoform P01116-2 G12D limits assumed): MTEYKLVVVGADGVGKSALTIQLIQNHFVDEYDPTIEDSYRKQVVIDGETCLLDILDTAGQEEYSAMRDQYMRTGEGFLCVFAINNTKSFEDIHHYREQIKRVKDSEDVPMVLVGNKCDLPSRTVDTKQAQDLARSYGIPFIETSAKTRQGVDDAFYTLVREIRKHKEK
Chain of KRAS G12D (P62937 whole entry): as the sequence (P62937 whole entry) above

CCn1c(-c2cccnc2[C@H](C)OC)c2c3cc(ccc31)-c1cc(O)cc(c1)C[C@H](NC(=O)[C@H](C(C)C)N(C)C(=O)CN(C)C(=O)[C@H]1N[C@H]1C1CCC1)C(=O)N1CCC[C@H](N1)C(=O)OCC(C)(C)C2 [Example 288]
< 5000 nM: EC50 (AsPC-1 (K-Ras G12D) [1])
10 to 100 nM: IC50 (NCI-H358 (K-Ras G12C)) | IC50 (KRAS G12S; [4]) | IC50 (KRAS G12V; [5]) | IC50 (KRAS G13C; [6]) | IC50 (KRAS G13D; [7]) | IC50 (KRAS Q61H) | IC50 (KRAS WT; [8]) | IC50 (NRAS G12C; [9]) | IC50 (NRAS WT) | IC50 (KRAS G12C; [10])
100 to 1000 nM: IC50 (AsPC-1 (K-Ras G12D) [2]) | IC50 (KRAS G12D; [3]) | IC50 (NRAS Q61K) | IC50 (NRAS Q61R)

CCn1c(-c2cccnc2[C@H](C)OC)c2c3cc(ccc31)-c1cc(O)cc(c1)C[C@H](NC(=O)[C@H](C(C)C)N(C)C(=O)CNC(=O)[C@@H]1N[C@@H]1C1CC1)C(=O)N1CCC[C@H](N1)C(=O)OCC(C)(C)C2 [Example 141]
< 5000 nM: EC50 (AsPC-1 (K-Ras G12D) [1])
100 to 1000 nM: IC50 (AsPC-1 (K-Ras G12D) [2]) | IC50 (NCI-H358 (K-Ras G12C)) | IC50 (KRAS G13D; [7]) | IC50 (NRAS Q61K) | IC50 (NRAS Q61R)
10 to 100 nM: IC50 (KRAS G12D; [3]) | IC50 (KRAS G12S; [4]) | IC50 (KRAS G12V; [5]) | IC50 (KRAS G13C; [6]) | IC50 (KRAS Q61H) | IC50 (KRAS WT; [8]) | IC50 (NRAS G12C; [9]) | IC50 (NRAS WT) | IC50 (KRAS G12C; [10])

CCn1c(-c2cccnc2[C@H](C)OC)c2c3cc(ccc31)-c1cc(O)cc(c1)C[C@H](NC(=O)[C@H](C1CCCC1)N1CC[C@]3(CCN(C(=O)[C@@H]4N[C@@H]4C4CC4)C3)C1=O)C(=O)N1CCC[C@H](N1)C(=O)OCC(C)(C)C2 [Example 214, (2S)-2-cyclopentyl-2-((S)-7-((2R,3R)-3-cyclopropylaziridine-2-carbonyl)-1-oxo-2,7-diazaspiro[4.4]nonan-2-yl)-N-((6^3S,4S)-1^1-ethyl-2^5-hydroxy-1^2-(2-((S)-1-methoxyethyl)pyridin-3-yl)-10,10-dimethyl-5,7-dioxo-6^1,6^2,6^3,6^4,6^5,6^6-hexahydro-1^1H-8-oxa-1(5,3)-indola-6(1,3)-pyridazina-2(1,3)-benzenacycloundecaphane-4-yl)acetamide]
< 5000 nM: EC50 (AsPC-1 (K-Ras G12D) [1])
< 10 nM: IC50 (KRAS G12D; Ras-Raf disruption, read-out: KRAS G12D FRET data IC50)
10 to 100 nM: IC50 (AsPC-1 (K-Ras G12D) [2]) | IC50 (NCI-H358 (K-Ras G12C)) | IC50 (KRAS G12S; Ras-Raf disruption, read-out: KRAS G12S FRET data IC50) | IC50 (KRAS G12V; Ras-Raf disruption, read-out: KRAS G12V FRET data IC50) | IC50 (KRAS G13C; Ras-Raf disruption, read-out: KRAS G13C FRET data IC50) | IC50 (KRAS Q61H; KRAS Q61H, read-out: KRAS Q61H FRET data IC50) | IC50 (KRAS WT; Ras-Raf disruption, read-out: KRAS WT FRET data IC50) | IC50 (NRAS G12C; NRAS G12C, read-out: NRAS G12C FRET data IC50) | IC50 (NRAS WT; NRAS WT, read-out: NRAS WT FRET data IC50) | IC50 (KRAS G12C; Ras-Raf disruption, read-out: KRAS G12C FRET data IC50)
100 to 1000 nM: IC50 (KRAS G13D; Ras-Raf disruption, read-out: KRAS G13D FRET data IC50) | IC50 (NRAS Q61K; NRAS Q61K, read-out: NRAS Q61K FRET data IC50) | IC50 (NRAS Q61R; NRAS Q61R, read-out: NRAS Q61R FRET data IC50)

CCn1c(-c2cccnc2[C@H](C)OC)c2c3cc(ccc31)-c1cc(O)cc(c1)C[C@H](NC(=O)[C@H](C(C)C)N(C)C(=O)CN(C)C(=O)[C@@H]1CN1CCCOC(C)=O)C(=O)N1CCC[C@H](N1)C(=O)OCC(C)(C)C2 (some centres unmarked) [Example 267]
10 to 100 nM: IC50 (KRAS G12D; [3]) | IC50 (KRAS G12S; [4]) | IC50 (KRAS G12V; [5]) | IC50 (KRAS G13C; [6]) | IC50 (KRAS Q61H) | IC50 (KRAS WT; [8])
< 10 nM: IC50 (NCI-H358 (K-Ras G12C)) | IC50 (NRAS G12C; [9]) | IC50 (KRAS G12C; [10])
< 5000 nM: EC50 (AsPC-1 (K-Ras G12D) [1])
100 to 1000 nM: IC50 (AsPC-1 (K-Ras G12D) [2]) | IC50 (KRAS G13D; [7]) | IC50 (NRAS Q61K) | IC50 (NRAS Q61R)

CCn1c(-c2cccnc2[C@H](C)OC)c2c3cc(ccc31)-c1cc(O)cc(c1)C[C@H](NC(=O)[C@H](C(C)C)N(C)C(=O)CN(C)C(=O)[C@H]1CN1Cc1ccccc1F)C(=O)N1CCC[C@H](N1)C(=O)OCC(C)(C)C2 (some centres unmarked) [Example 155]
< 5000 nM: EC50 (AsPC-1 (K-Ras G12D) [1])
100 to 1000 nM: IC50 (AsPC-1 (K-Ras G12D) [2]) | IC50 (KRAS G12D; [3]) | IC50 (KRAS G13D; [7])
10 to 100 nM: IC50 (KRAS G12S; [4]) | IC50 (KRAS G12V; [5]) | IC50 (KRAS G13C; [6]) | IC50 (KRAS WT; [8]) | IC50 (KRAS G12C; [10])
< 10 nM: IC50 (NCI-H358 (K-Ras G12C)) | IC50 (NRAS G12C; [9])

CCn1c(-c2cccnc2[C@H](C)OC)c2c3cc(ccc31)-c1cc(O)cc(c1)C[C@H](NC(=O)[C@H](C(C)C)N(C)C(=O)CN(C)C(=O)[C@H]1CN1Cc1ccccc1CO)C(=O)N1CCC[C@H](N1)C(=O)OCC(C)(C)C2 (some centres unmarked) [Example 156]
< 5000 nM: EC50 (AsPC-1 (K-Ras G12D) [1])
< 10 nM: IC50 (NCI-H358 (K-Ras G12C)) | IC50 (NRAS G12C; [9]) | IC50 (KRAS G12C; [10])
10 to 100 nM: IC50 (KRAS G12S; [4]) | IC50 (KRAS G12V; [5]) | IC50 (KRAS G13C; [6]) | IC50 (KRAS WT; [8])
100 to 1000 nM: IC50 (AsPC-1 (K-Ras G12D) [2]) | IC50 (KRAS G12D; [3]) | IC50 (KRAS G13D; [7])

CCn1c(-c2cccnc2[C@H](C)OC)c2c3cc(ccc31)-c1cc(O)cc(c1)C[C@H](NC(=O)[C@H](C(C)C)N(C)C(=O)CN(C)C(=O)[C@@H]1N[C@H]1COC)C(=O)N1CCC[C@H](N1)C(=O)OCC(C)(C)C2 [Example 85]
100 to 1000 nM: IC50 (KRAS G12D; [3])
10 to 100 nM: IC50 (NCI-H358 (K-Ras G12C)) | IC50 (KRAS G12S; [4]) | IC50 (KRAS G12V; [5]) | IC50 (KRAS G13D; [7]) | IC50 (KRAS WT; [8]) | IC50 (NRAS G12C; [9]) | IC50 (KRAS G12C; [10])
< 5000 nM: EC50 (AsPC-1 (K-Ras G12D) [1])
< 10 nM: IC50 (KRAS G13C; [6])
1000 to 10000 nM: IC50 (AsPC-1 (K-Ras G12D) [2])
